Data set [1] deals with SMN2 minigene mRNA (SMN2-A minigene) in HEK293H cells. The data set can be described thus: SMN2 minigene mRNA splicing RT-qPCR assay in cultured cells. It counts as cell-based, human. To be noted: Homo sapiens, HEK293-H; concentration increasing full length SMN2 mRNA 1.5-fold relative to vehicle-treated cells; HEK293H cells with SMN2-A minigene, 24 hours, 7-point concentration data; read-out: EC1.5x for production of full length SMN2 mRNA. The method in brief:
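Potency reflects the concentration that lifts full-length SMN2 minigene mRNA 1.5-fold above vehicle in stably transfected HEK293H cells after 24 h of treatment. Transcript abundance came from RT-qPCR as (1+E)^−Ct, normalized to GAPDH; endogenous SMN1/SMN2 are not detected.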
For orientation: Real-time PCR tracks product formation cycle by cycle.

Data set [2] relates to Smn protein in SMA patient fibroblast cells (GM03813). The data set can be described thus: Smn protein assay in cultured cells (SMN HTRF). The settings on record: SMA patient fibroblast cells, 48 hours; for EC1.5x for Smn protein expression: 7-point concentration curve, SMN HTRF, concentration producing 1.5 times Smn protein vs DMSO vehicle control; for maximum fold (Fold) increase of Smn protein: 7-point concentration data, fold relative to vehicle control. It counts as cell-based, human. In outline: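 Smn protein abundance in treated SMA fibroblasts was measured by HTRF after 48 h compound exposure. The reported EC1.5× is the concentration producing 1.5 times vehicle Smn levels.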
In general terms: Time-resolved FRET reads energy transfer from a long-lived donor to a nearby acceptor.

Broadly, the melting point is the temperature, or range, at which the solid turns liquid. Molecule `COc1ccc(-c2cc(=O)n3cc(C4CCN(C)CC4)ccc3n2)cc1OC` [Cpd 164, 2-(3,4-dimethoxyphenyl)-7-(1-methylpiperidin-4-yl)-4H-pyrido[1,2-a]pyrimidin-4-one] had a melting point of 181 to 183 °C. The EC (1.5-fold increase) in data set [1] fell in the range of 0.3 to 1 µM. Further, in data set [2], the “EC1.5x for Smn protein expression” value was “** (an EC1.5× between >1 μM and ≤3 μM is indicated by two stars (**))”; the “maximum fold (Fold) increase of Smn protein” value (“maximum fold (Fold) increase” below) is “**** (a fold increase between >1.5 and ≤1.65 is indicated by four stars (****))”.

The molecule `N#Cc1cc(F)cc(-c2cc(=O)n3cc(N4CCNCC4)ccc3n2)c1` [Compound 231, 3-fluoro-5-[4-oxo-7-(piperazin-1-yl)-4H-pyrido[1,2-a]pyrimidin-2-yl]benzonitrile] showed a melting point of 238 to 244 °C. Moreover, the EC (1.5-fold increase) in data set [1] lay in the range of 0.3 to 1 µM. Also, in data set [2], the “EC1.5x for Smn protein expression” value is “** (an EC1.5× between >1 μM and ≤3 μM is indicated by two stars (**))”; the “maximum fold (Fold) increase” value is “**** (a fold increase between >1.5 and ≤1.65 is indicated by four stars (****))”.

As for `CCN1CCN(c2ccc3nc(-c4cc(F)c5nc(C)oc5c4)cc(=O)n3c2)CC1` [Compound 309, 7-(4-ethylpiperazin-1-yl)-2-(4-fluoro-2-methyl-1,3-benzoxazol-6-yl)-4H-pyrido[1,2-a]pyrimidin-4-one], the melting point lay within 212 to 214 °C. Further, the EC (1.5-fold increase) in data set [1] was less than 0.1 µM. In data set [2], the “EC1.5x for Smn protein expression” value is “**** (an EC1.5x≤0.3 μM is indicated by four stars (****))”; the “maximum fold (Fold) increase” value was “**** (a fold increase between >1.5 and ≤1.65 is indicated by four stars (****))”.

Molecule `COc1ccc(-c2cc(=O)n3cc(N4C[C@@H](C)N[C@@H](C)C4)ccc3n2)cc1OC` [Compound 14, 2-(3,4-dimethoxyphenyl)-7-[(3R,5S)-3,5-dimethylpiperazin-1-yl]-4H-pyrido[1,2-a]pyrimidin-4-one] gave a melting point of 182 to 187 °C. Besides, the EC (1.5-fold increase) in data set [1] is 1 to 3 µM. In data set [2], the “maximum fold (Fold) increase” value is “*** (a fold increase between >1.35 and ≤1.5 is indicated by three stars (***))”.

Consider `Cc1cn2cc(-c3cc(=O)n4cc(C5CCN(CCO)CC5)ccc4n3)ccc2n1` [Compound 576, 7-[1-(2-hydroxyethyl)piperidin-4-yl]-2-(2-methylimidazo[1,2-a]pyridin-6-yl)-4H-pyrido[1,2-a]pyrimidin-4-one], for which the melting point lay in the range of 200 to 202 °C. Moreover, in data set [1], the EC (1.5-fold increase) was less than 0.1 µM. For the same molecule, in data set [2], the “EC1.5x for Smn protein expression” value is recorded as “**** (an EC1.5x≤0.3 μM is indicated by four stars (****))” and the “maximum fold (Fold) increase” value is listed as “***** (a fold increase >1.65 is indicated by five stars (*****))”.

Molecule `Cc1cn2nc(-c3cc(=O)n4cc(N5CC[C@H](CN)C5)ccc4n3)cc2c(C)n1` [Compound 797, 7-[(3R)-3-(aminomethyl)pyrrolidin-1-yl]-2-(4,6-dimethylpyrazolo[1,5-a]pyrazin-2-yl)-4H-pyrido[1,2-a]pyrimidin-4-one] registered a melting point of 214 to 217 °C. For the same molecule, the EC (1.5-fold increase) in data set [1] lay in the range of 1 to 3 µM. Moreover, in data set [2], the “EC1.5x for Smn protein expression” value was “* (An EC1.5× for Smn protein expression between >3 μM and ≤10 μM is indicated by one star (*))”; the “maximum fold (Fold) increase” value was “*** (a fold increase between >1.35 and ≤1.5 is indicated by three stars (***))”.

Consider `COc1ccc(-c2cc(=O)n3cc(C4CCN(CCO)CC4)ccc3n2)cc1OC` [Compound 214, 2-(3,4-dimethoxyphenyl)-7-[1-(2-hydroxyethyl)piperidin-4-yl]-4H-pyrido[1,2-a]pyrimidin-4-one], for which the melting point was 145 to 148 °C. For the same molecule, the EC (1.5-fold increase) in data set [1] was in the range of 0.3 to 1 µM. Moreover, in data set [2], the “EC1.5x for Smn protein expression” value is “** (an EC1.5× between >1 μM and ≤3 μM is indicated by two stars (**))”; the “maximum fold (Fold) increase” value was “**** (a fold increase between >1.5 and ≤1.65 is indicated by four stars (****))”.

Molecule `C[C@H]1CN(c2ccc3nc(-c4cnn(C)c4)cc(=O)n3c2)CCN1` [Cpd 191, 7-[(3S)-3-methylpiperazin-1-yl]-2-(1-methyl-1H-pyrazol-4-yl)-4H-pyrido[1,2-a]pyrimidin-4-one] registered a melting point of 168 to 170 °C. Also, the EC (1.5-fold increase) in data set [1] was in the range of 1 to 3 µM. For the same molecule, in data set [2], the “EC1.5x for Smn protein expression” value was “** (an EC1.5× between >1 μM and ≤3 μM is indicated by two stars (**))”; the “maximum fold (Fold) increase” value is “**** (a fold increase between >1.5 and ≤1.65 is indicated by four stars (****))”.

`Cc1cn2cc(-c3ccc4nc(N5CCNCC5)cc(=O)n4c3)cc(F)c2n1` [Compound 268, 7-(8-fluoro-2-methylimidazo[1,2-a]pyridin-6-yl)-2-(piperazin-1-yl)-4H-pyrido[1,2-a]pyrimidin-4-one]: the melting point is 308 °C (dec.). In data set [1], the EC (1.5-fold increase) is less than 0.1 µM. For the same molecule, in data set [2], the “EC1.5x for Smn protein expression” value is “**** (an EC1.5x≤0.3 μM is indicated by four stars (****))” and the “maximum fold (Fold) increase” value is reported as “***** (a fold increase >1.65 is indicated by five stars (*****))”.

In turn, `COc1ccc(-c2cc(=O)n3cc(N4CCN(C)CC4)ccc3n2)cc1` [Compound 2, 2-(4-methoxyphenyl)-7-(4-methylpiperazin-1-yl)-4H-pyrido[1,2-a]pyrimidin-4-one] displayed a melting point of 178 to 182 °C. The EC (1.5-fold increase) in data set [1] fell in the range of 1 to 3 µM. In addition, the “maximum fold (Fold) increase” value in data set [2] was “** (a fold increase between >1.2 and ≤1.35 is indicated by two stars (**))”.

In turn, `COc1c(F)cc(-c2cc(=O)n3cc(N4CCN[C@@H](C)C4)ccc3n2)cc1F` [Compound 184, 2-(3,5-difluoro-4-methoxyphenyl)-7-[(3S)-3-methylpiperazin-1-yl]-4H-pyrido[1,2-a]pyrimidin-4-one] showed a melting point of 182 to 184 °C. The EC (1.5-fold increase) in data set [1] lay in the range of 1 to 3 µM. For the same molecule, in data set [2], the “maximum fold (Fold) increase” value is “** (a fold increase between >1.2 and ≤1.35 is indicated by two stars (**))”.

Take `C[C@H]1CN(c2ccc3nc(-c4ccccc4)cc(=O)n3c2)CCN1` [Compound 34, 7-[(3S)-3-methylpiperazin-1-yl]-2-phenyl-4H-pyrido[1,2-a]pyrimidin-4-one]: the melting point lay within 170 to 173 °C. Besides, the EC (1.5-fold increase) in data set [1] was in the range of 1 to 3 µM. Besides, the “maximum fold (Fold) increase” value in data set [2] is “** (a fold increase between >1.2 and ≤1.35 is indicated by two stars (**))”.

Consider `Cc1cn2cc(-c3cc(=O)n4cc(N5CCN(C(C)C)[C@@H](C)C5)ccc4n3)cc(Cl)c2n1` [Compound 498, 2-(8-chloro-2-methylimidazo[1,2-a]pyridin-6-yl)-7-[(3S)-3-methyl-4-(propan-2-yl)piperazin-1-yl]-4H-pyrido[1,2-a]pyrimidin-4-one], for which the melting point lay in the range of 264 to 270 °C. Also, the EC (1.5-fold increase) in data set [1] was less than 0.1 µM. Further, in data set [2], the “EC1.5x for Smn protein expression” value is listed as “**** (an EC1.5x≤0.3 μM is indicated by four stars (****))” and the “maximum fold (Fold) increase” value is recorded as “***** (a fold increase >1.65 is indicated by five stars (*****))”.

Turning to `Cc1cn2cc(-c3cc(=O)n4cc(N5CCN(C6CCC6)[C@@H](C)C5)ccc4n3)cc(Cl)c2n1` [Compound 536, 2-(8-chloro-2-methylimidazo[1,2-a]pyridin-6-yl)-7-[(3S)-4-cyclobutyl-3-methylpiperazin-1-yl]-4H-pyrido[1,2-a]pyrimidin-4-one], the melting point was 228 to 232 °C. In data set [1], the EC (1.5-fold increase) is less than 0.1 µM. Moreover, in data set [2], the “EC1.5x for Smn protein expression” value is listed as “**** (an EC1.5x≤0.3 μM is indicated by four stars (****))”; the “maximum fold (Fold) increase” value was “**** (a fold increase between >1.5 and ≤1.65 is indicated by four stars (****))”.

Molecule `COc1ccc(-c2ccc3nc(N4CCC(N)CC4)cc(=O)n3c2)cc1F` [Cpd 276, 2-(4-aminopiperidin-1-yl)-7-(3-fluoro-4-methoxyphenyl)-4H-pyrido[1,2-a]pyrimidin-4-one] returned a melting point of 268 to 283 °C. Further, in data set [1], the EC (1.5-fold increase) lay in the range of 0.3 to 1 µM. In data set [2], the “maximum fold (Fold) increase” value was “* (A maximum fold increase of ≤1.2 is indicated by one star (*))”.

`Cc1nc2ccc(-c3cc(=O)n4cc(N5CCN(C)[C@@H](C)C5)ccc4c3)cc2o1` [Compound 325, 7-[(3S)-3,4-dimethylpiperazin-1-yl]-2-(2-methyl-1,3-benzoxazol-6-yl)-4H-quinolizin-4-one] gave a melting point greater than 300 °C. The EC (1.5-fold increase) in data set [1] lay within 0.3 to 1 µM. Besides, the “maximum fold (Fold) increase” value in data set [2] is “*** (a fold increase between >1.35 and ≤1.5 is indicated by three stars (***))”.

For the molecule `Cc1nc2ccc(-c3cc(=O)n4cc(N5CCC(N(C)C)CC5)ccc4n3)cc2o1` [Compound 240, 7-[4-(dimethylamino)piperidin-1-yl]-2-(2-methyl-1,3-benzoxazol-6-yl)-4H-pyrido[1,2-a]pyrimidin-4-one], the melting point fell in the range of 206 to 210 °C. Further, in data set [1], the EC (1.5-fold increase) was less than 0.1 µM. For the same molecule, in data set [2], the “EC1.5x for Smn protein expression” value is reported as “**** (an EC1.5x≤0.3 μM is indicated by four stars (****))”; the “maximum fold (Fold) increase” value is “**** (a fold increase between >1.5 and ≤1.65 is indicated by four stars (****))”.
